Columns and labels:
Kunming male mice = test: acetic acid writhing test on mice; type: in vivo, mouse; conditions: for Number of writhing times: within 30 min
SD rats = test: carrageenan-induced rat paw swelling test; type: in vivo; conditions: 4 mg/Kg positive control
Procedure: Eighteen healthy adult male mice were randomly divided into 3 groups. FAPM (100 mg/kg) was administered intraperitoneally once a day for 3 consecutive days. The control group was injected with the same amount of solvent, and the positive drug dexamethasone (4 mg/kg) was administered intragastrically once a day for 3 consecutive days. Thirty minutes after the last administration, 0.1 mL of 1% carrageenan was injected subcutaneously into the right hind paw of each rat, and the plantar thickness was measured before injection and 1, 2 and 3 hours after injection. Three hours later, the rats were sacrificed by dislocation. The feet were cut off from the knee joints and weighed on a precision balance. The swelling degree of the paw (right foot weight-left foot weight) was calculated.

mice = test: xylene-induced mouse ear swelling test; type: in vivo; conditions: 10 mg/Kg
Procedure: Fifty healthy adult male mice were randomly divided into 5 groups. […] […] One hour after administration, 20 μL of xylene was evenly applied to both sides of the right ear of mouse, and xylene was not applied to the left ear as self control. One hour later, the two ears were cut off, and two ear pieces were removed from the same parts of the two ears with a 6 mm hole punch. The two ear pieces were weighed on a precision balance, and the swelling degree (right ear piece weight-left ear piece weight) and swelling inhibition rate (right ear piece weight-left ear piece weight)/left ear piece weight×100%) were calculated.

Kunming female mice [1] = test: oxytocin-induced dysmenorrhea model in mice (diethylstilbestrol sensitization); type: in vivo, mouse; conditions: Table 9, positive control 50 mg/Kg intraperitoneal
Procedure: (§1) A mouse dysmenorrhea model was established with reference to Yang L., Cao Z., Yu B. & Chai C. An in vivo mouse model of primary dysmenorrhea. Exp Anim. 2015, August 64, 295-303. Adult healthy Kunming female mice were randomly grouped, 10 mice in each group. Experimental mice were intragastrically given diethylstilbestrol 0.2 mg daily for 12 days. Different kinds and dosages of the inhibitors of the cytochrome bc1 complex were given intraperitoneally or intragastrically 30 min after the last administration. Indometacin (50 mg/kg) was injected intraperitoneally as positive control, PGF2α (1.3 mg/kg) or oxytocin (20 U/kg) was injected intraperitoneally 1 h later, and the writhe starting time (reaction latency) and the number of writhing times within 30 min were observed and recorded.

Kunming female mice [2] = test: PGF2α-induced dysmenorrhea model in mice (diethylstilbestrol sensitization); type: in vivo, mouse; conditions: for Number of writhing times: within 30 min
Procedure: as §1

[3] = Table 5, positive control 50 mg/Kg intraperitoneal
[4] = Table 8, positive control 50 mg/Kg intraperitoneal

COc1ccc2c(c1)c(CC(=O)O)c(C)n2C(=O)c1ccc(Cl)cc1 [Indomethacin, reference compound]
Writhe starting time (Kunming male mice; Table 3, 50 mg/Kg intraperitoneal): 4.6 ± 0.8 min
Number of writhing times (Kunming male mice; Table 3, 50 mg/Kg intraperitoneal, 1 hour before acetic acid): 15.8 ± 3.9
Writhe starting time (Kunming male mice; [3]): 3.4 ± 1.0 min
Number of writhing times (Kunming male mice; [3]): 24.8 ± 4.8
Paw swelling thickness 1 h (SD rats; 1 h after carrageenan): 5.52 ± 0.39 mm
Paw swelling thickness 2 h (SD rats; 2 h after carrageenan): 5.65 ± 0.39 mm
Paw swelling thickness 3 h (SD rats; 3 h after carrageenan): 6.11 ± 0.15 mm
Paw swelling (right foot weight-left foot weight) (SD rats; 3 hours after carrageenan): 0.518 ± 0.05 g
ear swelling degree versus control group (mice): no statistical difference
Ear swelling (mice; positive control intraperitoneal, 1 hour after xylene): 12 ± 3.74 mg
Writhe starting time (Kunming female mice [1]): 3.5 ± 1.0
Number of writhing times (Kunming female mice [1]; oxytocin (20 U/kg), within 30 min): 14.7 ± 1.4
Writhe starting time (Kunming female mice [2]; Table 7, 50 mg/Kg intraperitoneal): 1.89 ± 0.6 min
Number of writhing times (Kunming female mice [2]; Table 7, 50 mg/Kg intraperitoneal, 1 h before PGF2α (1.3 mg/kg)): 15.0 ± 2.1
Writhe starting time (Kunming female mice [2]; [4]): 2.1 ± 1.2 min
Number of writhing times (Kunming female mice [2]; [4]): 16.8 ± 2.5

— patent publication US11058690B2, “Use of cytochrome bc1 complex inhibitor in preparing pharmaceutical composition” (BEIJING WEILANZHIYUAN MEDICAL TECHNOLOGY CO., LTD., priority 2017, dated 2021)
